Values after ≈ are worked out from the molar mass of the structure shown. Active and inactive are the calls of the source. No cut-off for these calls is given here.
Columns and labels:
[1] = test system: Salmonella typhi; experiment: Antibacterial activity against Salmonella typhi ATCC 25021 after 24 hrs by serial dilution method; assay type: functional, Salmonella enterica subsp. enterica serovar Typhi; details: Salmonella enterica, ATCC 25021, 24 h
[2] = test system: Staphylococcus aureus; experiment: Antibacterial activity against Staphylococcus aureus ATCC 25930 after 24 hrs by serial dilution method; assay type: functional; details: ATCC 25930, 24 h
[3] = test system: Escherichia coli; experiment: Antibacterial activity against Escherichia coli ATCC 26032 after 24 hrs by serial dilution method; assay type: functional; details: ATCC 26032, 24 h
[4] = test system: Cryptococcus neoformans; experiment: Antifungal activity against Cryptococcus neoformans ATCC 3235 after 72 to 96 hrs by serial dilution method; assay type: functional
[5] = test system: Aspergillus flavus; experiment: Antifungal activity against Aspergillus flavus ATCC 525 after 72 to 96 hrs by serial dilution method; assay type: functional
[6] = test system: Bacillus subtilis; experiment: Antibacterial activity against Bacillus subtilis ATCC 530 after 24 hrs by serial dilution method; assay type: functional; details: ATCC 530, 24 h
[7] = test system: Candida albicans; experiment: Antifungal activity against Candida albicans ATCC 3430 after 72 to 96 hrs by serial dilution method; assay type: functional
[8] = test system: Klebsiella pneumoniae; experiment: Antibacterial activity against Klebsiella pneumoniae ATCC 16425 after 24 hrs by serial dilution method; assay type: functional; details: ATCC 16425, 24 h
[9] = test system: Aspergillus niger; experiment: Antifungal activity against Aspergillus niger ATCC 635 after 72 to 96 hrs by serial dilution method; assay type: functional
[10] = test system: Rhizopus; experiment: Antifungal activity against Rhizopus species ATCC 2842 after 72 to 96 hrs by serial dilution method; assay type: functional
[11] = test system: Escherichia coli; experiment: Antibacterial activity against Escherichia coli ATCC 26032 at 200 ug/ml after 24 hrs by serial dilution method; assay type: functional, organism-based
[12] = test system: Klebsiella pneumoniae; experiment: Antibacterial activity against Klebsiella pneumoniae ATCC 16425 at 200 ug/ml after 24 hrs by serial dilution method; assay type: functional, organism-based
[13] = test system: Aspergillus niger; experiment: Antifungal activity against Aspergillus niger ATCC 635 at 200 ug/ml after 72 to 96 hrs by serial dilution method; assay type: functional, organism-based
[14] = test system: Bacillus subtilis; experiment: Antibacterial activity against Bacillus subtilis ATCC 530 at 200 ug/ml after 24 hrs by serial dilution method; assay type: functional, organism-based

Row | SMILES | MIC [1] [µg/mL] | MIC [2] [µg/mL] | MIC [3] [µg/mL] | MIC [4] [µg/mL] | MIC [5] [µg/mL] | MIC [6] [µg/mL] | MIC [7] [µg/mL] | MIC [8] [µg/mL] | MIC [9] [µg/mL] | MIC [10] [µg/mL] | inhibition [11] | inhibition [12] | inhibition [13] | inhibition [14]
1 | CC(=O)NC1=NN(C(C)=O)C2(S1)C1CCCC2C(c2ccc(F)cc2)NC1c1ccc(F)cc1 (stereo not given) | 6.25 (≈ 12.9 µM) | 50 (≈ 103 µM) | 12.5 (≈ 25.8 µM) | 12.5 (≈ 25.8 µM) | 6.25 (≈ 12.9 µM) | 6.25 (≈ 12.9 µM) | 6.25 (≈ 12.9 µM) | 12.5 (≈ 25.8 µM) | 6.25 (≈ 12.9 µM) | 50 (≈ 103 µM) | – | – | – | –
2 | COc1cccc(C2NC(c3cccc(OC)c3)C3CCCC2C32SC(NC(C)=O)=NN2C(C)=O)c1 (stereo not given) | – | 100 (≈ 197 µM) | 200 (≈ 393 µM) | 50 (≈ 98.3 µM) | 200 (≈ 393 µM) | 50 (≈ 98.3 µM) | 25 (≈ 49.2 µM) | 100 (≈ 197 µM) | 100 (≈ 197 µM) | 50 (≈ 98.3 µM) | inactive | – | – | –
3 | CN[C@@H]1[C@H](O[C@H]2[C@H](O[C@H]3[C@H](O)[C@@H](O)[C@H](N=C(N)N)[C@@H](O)[C@@H]3N=C(N)N)O[C@@H](C)[C@]2(O)C=O)O[C@@H](CO)[C@H](O)[C@H]1O [STREPTOMYCIN] | 50 (≈ 86 µM) | 50 (≈ 86 µM) | 12.5 (≈ 21.5 µM) | – | – | 12.5 (≈ 21.5 µM) | – | 25 (≈ 43 µM) | – | – | – | – | – | –
4 | CCC(=O)NC1=NN(C(=O)CC)C2(S1)C1CCCC2C(c2cccc(OC)c2)N(C(=O)CC)C1c1cccc(OC)c1 (stereo not given) | 200 (≈ 337 µM) | 100 (≈ 169 µM) | 50 (≈ 84.4 µM) | 200 (≈ 337 µM) | 25 (≈ 42.2 µM) | 50 (≈ 84.4 µM) | 25 (≈ 42.2 µM) | – | – | 50 (≈ 84.4 µM) | – | inactive | inactive | –
5 | CCC(=O)NC1=NN(C(=O)CC)C2(S1)C1CCCC2C(c2ccccc2)N(C(=O)CC)C1c1ccccc1 (stereo not given) | 25 (≈ 46.9 µM) | 12.5 (≈ 23.5 µM) | 50 (≈ 93.9 µM) | 6.25 (≈ 11.7 µM) | 12.5 (≈ 23.5 µM) | 50 (≈ 93.9 µM) | 50 (≈ 93.9 µM) | 50 (≈ 93.9 µM) | 50 (≈ 93.9 µM) | 12.5 (≈ 23.5 µM) | – | – | – | –
6 | CCC(=O)NC1=NN(C(=O)CC)C2(S1)C1CCCC2C(c2ccc(Cl)cc2)NC1c1ccc(Cl)cc1 (stereo not given) | 12.5 (≈ 22.9 µM) | 200 (≈ 367 µM) | 25 (≈ 45.8 µM) | 25 (≈ 45.8 µM) | 50 (≈ 91.7 µM) | 12.5 (≈ 22.9 µM) | 12.5 (≈ 22.9 µM) | 100 (≈ 183 µM) | 12.5 (≈ 22.9 µM) | 12.5 (≈ 22.9 µM) | – | – | – | –
7 | CCC(=O)NC1=NN(C(=O)CC)C2(S1)C1CCCC2C(c2ccc(OC)cc2)N(C(=O)CC)C1c1ccc(OC)cc1 (stereo not given) | 25 (≈ 42.2 µM) | 25 (≈ 42.2 µM) | 50 (≈ 84.4 µM) | 50 (≈ 84.4 µM) | 100 (≈ 169 µM) | – | 25 (≈ 42.2 µM) | 25 (≈ 42.2 µM) | 25 (≈ 42.2 µM) | 100 (≈ 169 µM) | – | – | – | inactive
8 | C[C@@H]1[C@H](O)[C@@H](C)/C=C/C=C/C=C/C=C/C=C/C=C/C=C/[C@H](O[C@@H]2O[C@H](C)[C@@H](O)[C@H](N)[C@@H]2O)C[C@@H]2O[C@](O)(C[C@@H](O)C[C@@H](O)[C@H](O)CC[C@@H](O)C[C@@H](O)CC(=O)O[C@H]1C)C[C@H](O)[C@H]2C(=O)O [AMPHOTERICIN B] | – | – | – | 25 (≈ 27.1 µM) | 50 (≈ 54.1 µM) | – | 25 (≈ 27.1 µM) | – | 50 (≈ 54.1 µM) | 25 (≈ 27.1 µM) | – | – | – | –
9 | CCC(=O)N(C1=NN(C(=O)CC)C2(S1)C1CCCC2C(c2ccccc2Cl)NC1c1ccccc1Cl)c1ccccc1 (stereo not given) | 25 (≈ 40.2 µM) | 6.25 (≈ 10.1 µM) | 50 (≈ 80.4 µM) | 200 (≈ 322 µM) | 50 (≈ 80.4 µM) | 50 (≈ 80.4 µM) | 50 (≈ 80.4 µM) | 25 (≈ 40.2 µM) | 50 (≈ 80.4 µM) | 100 (≈ 161 µM) | – | – | – | –
10 | CC(=O)N(C1=NN(C(C)=O)C2(S1)C1CCCC2C(c2ccccc2Cl)NC1c1ccccc1Cl)c1ccccc1 (stereo not given) | 100 (≈ 168 µM) | 25 (≈ 42.1 µM) | 50 (≈ 84.2 µM) | 50 (≈ 84.2 µM) | 100 (≈ 168 µM) | 12.5 (≈ 21.1 µM) | 6.25 (≈ 10.5 µM) | 100 (≈ 168 µM) | 12.5 (≈ 21.1 µM) | 25 (≈ 42.1 µM) | – | – | – | –
11 | CC(=O)NC1=NN(C(C)=O)C2(S1)C1CCCC2C(c2ccccc2Cl)NC1c1ccccc1Cl (stereo not given) | 12.5 (≈ 24.2 µM) | 12.5 (≈ 24.2 µM) | 12.5 (≈ 24.2 µM) | 50 (≈ 96.6 µM) | 12.5 (≈ 24.2 µM) | 12.5 (≈ 24.2 µM) | 12.5 (≈ 24.2 µM) | 25 (≈ 48.3 µM) | – | 12.5 (≈ 24.2 µM) | – | – | inactive | –
12 | CCC(=O)NC1=NN(C(=O)CC)C2(S1)C1CCCC2C(c2ccc(C)cc2)NC1c1ccc(C)cc1 (stereo not given) | 50 (≈ 99.1 µM) | 50 (≈ 99.1 µM) | 25 (≈ 49.5 µM) | 25 (≈ 49.5 µM) | 200 (≈ 396 µM) | 100 (≈ 198 µM) | 25 (≈ 49.5 µM) | 25 (≈ 49.5 µM) | 100 (≈ 198 µM) | 50 (≈ 99.1 µM) | – | – | – | –
13 | CC(=O)NC1=NN(C(C)=O)C2(S1)C1CCCC2C(c2ccccc2)N(C(C)=O)C1c1ccccc1 (stereo not given) | 25 (≈ 51 µM) | 12.5 (≈ 25.5 µM) | 50 (≈ 102 µM) | 50 (≈ 102 µM) | 100 (≈ 204 µM) | 100 (≈ 204 µM) | 100 (≈ 204 µM) | 100 (≈ 204 µM) | 25 (≈ 51 µM) | 50 (≈ 102 µM) | – | – | – | –
14 | CCC(=O)NC1=NN(C(=O)CC)C2(S1)C1CCCC2C(c2cccc(F)c2)NC1c1cccc(F)c1 (stereo not given) | 6.25 (≈ 12.2 µM) | 100 (≈ 195 µM) | 6.25 (≈ 12.2 µM) | 25 (≈ 48.8 µM) | 50 (≈ 97.5 µM) | 6.25 (≈ 12.2 µM) | 25 (≈ 48.8 µM) | 50 (≈ 97.5 µM) | 12.5 (≈ 24.4 µM) | 25 (≈ 48.8 µM) | – | – | – | –
15 | CC(=O)N(C1=NN(C(C)=O)C2(S1)C1CCCC2C(c2ccc(Cl)cc2)N(C(C)=O)C1c1ccc(Cl)cc1)c1ccccc1 (stereo not given) | 12.5 (≈ 19.7 µM) | 12.5 (≈ 19.7 µM) | 25 (≈ 39.3 µM) | 50 (≈ 78.7 µM) | 200 (≈ 315 µM) | 25 (≈ 39.3 µM) | 100 (≈ 157 µM) | 50 (≈ 78.7 µM) | – | 12.5 (≈ 19.7 µM) | – | – | inactive | –
16 | CCC(=O)NC1=NN(C(=O)CC)C2(S1)C1CCCC2C(c2ccc(F)cc2)NC1c1ccc(F)cc1 (stereo not given) | 6.25 (≈ 12.2 µM) | 25 (≈ 48.8 µM) | 12.5 (≈ 24.4 µM) | 25 (≈ 48.8 µM) | 6.25 (≈ 12.2 µM) | 6.25 (≈ 12.2 µM) | 6.25 (≈ 12.2 µM) | 25 (≈ 48.8 µM) | 12.5 (≈ 24.4 µM) | 6.25 (≈ 12.2 µM) | – | – | – | –
17 | CC(=O)NC1=NN(C(C)=O)C2(S1)C1CCCC2C(c2ccc(Cl)cc2)NC1c1ccc(Cl)cc1 (stereo not given) | 25 (≈ 48.3 µM) | 25 (≈ 48.3 µM) | 12.5 (≈ 24.2 µM) | 6.25 (≈ 12.1 µM) | 50 (≈ 96.6 µM) | – | 25 (≈ 48.3 µM) | 50 (≈ 96.6 µM) | 25 (≈ 48.3 µM) | 200 (≈ 386 µM) | – | – | – | inactive
18 | COc1ccc(C2C3CCCC(C(c4ccc(OC)cc4)N2C(C)=O)C32SC(NC(C)=O)=NN2C(C)=O)cc1 (stereo not given) | 50 (≈ 90.8 µM) | 25 (≈ 45.4 µM) | 50 (≈ 90.8 µM) | 25 (≈ 45.4 µM) | 12.5 (≈ 22.7 µM) | 50 (≈ 90.8 µM) | 25 (≈ 45.4 µM) | 25 (≈ 45.4 µM) | – | 100 (≈ 182 µM) | – | – | inactive | –
19 | CCC(=O)NC1=NN(C(=O)CC)C2(S1)C1CCCC2C(c2ccccc2Cl)NC1c1ccccc1Cl (stereo not given) | 25 (≈ 45.8 µM) | 50 (≈ 91.7 µM) | 50 (≈ 91.7 µM) | 50 (≈ 91.7 µM) | 50 (≈ 91.7 µM) | 12.5 (≈ 22.9 µM) | 12.5 (≈ 22.9 µM) | 25 (≈ 45.8 µM) | 12.5 (≈ 22.9 µM) | 100 (≈ 183 µM) | – | – | – | –
20 | CC(=O)NC1=NN(C(C)=O)C2(S1)C1CCCC2C(c2cccc(F)c2)NC1c1cccc(F)c1 (stereo not given) | 6.25 (≈ 12.9 µM) | 50 (≈ 103 µM) | 6.25 (≈ 12.9 µM) | 25 (≈ 51.6 µM) | 6.25 (≈ 12.9 µM) | 25 (≈ 51.6 µM) | 25 (≈ 51.6 µM) | 6.25 (≈ 12.9 µM) | 25 (≈ 51.6 µM) | 12.5 (≈ 25.8 µM) | – | – | – | –
21 | CC(=O)NC1=NN(C(C)=O)C2(S1)C1CCCC2C(c2ccc(C)cc2)NC1c1ccc(C)cc1 (stereo not given) | 100 (≈ 210 µM) | 25 (≈ 52.4 µM) | 100 (≈ 210 µM) | 50 (≈ 105 µM) | 12.5 (≈ 26.2 µM) | 12.5 (≈ 26.2 µM) | 25 (≈ 52.4 µM) | 12.5 (≈ 26.2 µM) | 50 (≈ 105 µM) | 25 (≈ 52.4 µM) | – | – | – | –
